In patent US8945566B2, “Methods for improving the bioactivity of therapeutic IgE antibodies for the treatment of disease” (Quest PharmaTech, Inc., priority 2008, dated 2015):

What was measured:
[1] = tested on: transgenic mice expressing the human FcεRIα; experiment: passive cutaneous anaphylaxis with tumor microspheroids; assay type: in vivo; settings: agent administered to the mouse
Description: Passive cutaneous anaphylaxis is performed in transgenic mice expressing the human FcεRIα. Transgenic mice are shaved and injected intradermally in different regions of the dorsal side with […] of 6 mg/ml histamine base (HollisterStier, Spokane, Wash.), 1 μg anti-PSA IgE, CT26-PSA or CT26-Neo microspheroid alone, 2 μg of crosslinker anti-human kappa antibody alone, 1 μg anti-PSA IgE plus CT26-PSA or CT26-Neo microspheroid, or 1 μg anti-PSA IgE crosslinked with 2 μg of an anti-human kappa antibody. After 15 min, 1% Evans Blue in […] saline is injected i.v. Mice are sacrificed 20 min later, and local cutaneous anaphylaxis is assessed visually by the blue leakage in the area surrounding the injection. […] This effect is not prevented by administration of cortisol to the mouse; however pre-administration of an H1 blocking agent inhibits the size of the response.

[2] = tested on: SKBR3 human breast cancer cells; experiment: histamine release and tumor cell killing with effector cells (PBMC or RBL-Sx-38); assay type: cell-based; settings: poly IC 1 to 25 μg/ml added 30 minutes to 4 hours post co-incubation
Description: Tumor cells are incubated with increasing concentrations of Her-2 specific IgG or IgE and combined with the effector cells. Evidence of local effector cell activation is measured by assessing histamine and or beta hexosimimidase release into the culture supernatant. Confirmatory experiments showing specificity for the Her-2 Ag can be conducted using anti-NP IgE and NP-HSA or anti-PSA IgE and PSA or conjugated PSA. In addition to immediate hypersensitivity, the target cells can be pre-labeled with Calcein AM and the ability of the anti-Her2 IgE or IgG to induce tumor killing can be monitored via direct effect of the PBMC or the RBL-Sx-38 cells in inducing release of the Calcein AM label.
Having established the baseline activity of a representative Ag specific IgE monoclonal in terms of both histamine release and basic tumor cell killing, the effect of corticosteroid and specific adjuvant on the model can be measured. […] The ability of TLR3 stimulation to augment the ADCC effect is addressed by adding low concentrations (1 to 25 μg/ml) of poly IC (Sigma) to the system at various time points.

| Compound | effect of co-medication on IgE-induced wheal and flare reaction [1] | cell killing (ADCC effect) [2] |
| --- | --- | --- |
| C[C@]12CCC(=O)C=C1CC[C@@H]1[C@@H]2[C@@H](O)C[C@@]2(C)[C@H]1CC[C@]2(O)C(=O)CO [cortisol] | not prevented | – |
| poly IC | – | enhances the amount of killing observed |
